Results reported in US12692254B2, “Benzimidazole inhibitors of PAD enzymes” (BRISTOL-MYERS SQUIBB COMPANY, priority 2018, dated 2026).

target: human PAD4 (hPAD4) (Homo sapiens, UniProt Q9UM07); experiment: RFMS human PAD4 functional assay (rapid-fire mass spectrum); assay type: biochemical; settings: 5 nM hPAD4 enzyme, 250 μM BAEE, 50 μM Calcium; 30 min preincubation, 90 min reaction at 37° C.
How it was run: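 PAD4 (10 nM) preincubated 30 min with compound (top final 50 μM), then BAEE substrate added in pH 7.5 HEPES buffer with DTT, 50 μM calcium, TPEN; 90 min at 37° C. After TCA quench, citrulline derivatized with phenyl glyoxal (4 mM final, 30 min, 37° C) and quantified by RapidFire MS against internal standard.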

Chain of human PAD4 (hPAD4) (Q9UM07 whole entry): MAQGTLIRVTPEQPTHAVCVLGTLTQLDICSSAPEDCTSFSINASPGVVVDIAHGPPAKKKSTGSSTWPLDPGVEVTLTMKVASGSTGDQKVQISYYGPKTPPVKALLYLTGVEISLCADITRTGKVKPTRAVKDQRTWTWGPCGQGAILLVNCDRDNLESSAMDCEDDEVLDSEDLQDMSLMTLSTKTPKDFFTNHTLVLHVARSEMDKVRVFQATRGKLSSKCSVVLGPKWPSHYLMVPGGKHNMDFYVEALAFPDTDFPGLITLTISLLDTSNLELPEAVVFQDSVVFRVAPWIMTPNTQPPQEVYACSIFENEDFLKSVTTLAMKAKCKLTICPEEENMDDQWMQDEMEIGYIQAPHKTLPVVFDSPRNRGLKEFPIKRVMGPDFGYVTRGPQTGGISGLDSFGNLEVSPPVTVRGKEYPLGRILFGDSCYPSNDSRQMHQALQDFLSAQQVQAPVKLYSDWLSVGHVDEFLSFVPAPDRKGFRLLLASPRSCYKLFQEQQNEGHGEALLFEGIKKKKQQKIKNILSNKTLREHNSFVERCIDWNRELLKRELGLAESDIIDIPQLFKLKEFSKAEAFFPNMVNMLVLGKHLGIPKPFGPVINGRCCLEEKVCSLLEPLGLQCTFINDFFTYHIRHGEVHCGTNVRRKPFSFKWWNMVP

IC50 | Structure (SMILES)
29 nM | COc1cccc(-n2cc(Cn3c(-c4cc5cccnc5n4CC4CC4)nc4cc(C(=O)N5C[C@H](N)C[C@@H](F)C5)cc(OC)c43)cn2)n1 [Example 369, (3R,5R)-1-{2-[1-(cyclopropylmethyl)-1H-pyrrolo[2,3-b]pyridin-2-yl]-7-methoxy-1-{[1-(6-methoxypyridin-2-yl)-1H-pyrazol-4-yl]methyl}-1H-1,3-benzodiazole-5-carbonyl}-5-fluoropiperidin-3-amine]
30 nM | COc1cc(C(=O)N2CC3CCC2[C@@H]3N)cc2nc(-c3cc4cccnc4n3CC3CC3)n(Cc3cnn(-c4ccc(O)nc4)c3)c12 (stereo partly drawn) [Example 370, 5-[4-({5-[(7R)-7-amino-2-azabicyclo[2.2.1]heptane-2-carbonyl]-2-[1-(cyclopropylmethyl)-1H-pyrrolo[2,3-b]pyridin-2-yl]-7-methoxy-1H-1,3-benzodiazol-1-yl}methyl)-1H-pyrazol-1-yl]pyridin-2-ol]
30 nM | COc1cc(C(=O)N2CC3CCC2[C@@H]3N)cc2nc(-c3cc4cccnc4n3CC3CC3)n(Cc3cnn(-c4ccc(F)cn4)c3)c12 (stereo partly drawn) [Example 371, (7R)-2-{2-[1-(cyclopropylmethyl)-1H-pyrrolo[2,3-b]pyridin-2-yl]-1-{[1-(5-fluoropyridin-2-yl)-1H-pyrazol-4-yl]methyl}-7-methoxy-1H-1,3-benzodiazole-5-carbonyl}-2-azabicyclo[2.2.1]heptan-7-amine]
32 nM | COc1cc(C(=O)N2CC3CCC2[C@@H]3N)cc2nc(-c3cc4cccnc4n3CC3CC3)n(Cc3cnn(-c4cncc(F)c4)c3)c12 (stereo partly drawn) [Example 372, (7R)-2-{2-[1-(cyclopropylmethyl)-1H-pyrrolo[2,3-b]pyridin-2-yl]-1-{[1-(5-fluoropyridin-3-yl)-1H-pyrazol-4-yl]methyl}-7-methoxy-1H-1,3-benzodiazole-5-carbonyl}-2-azabicyclo[2.2.1]heptan-7-amine]
34 nM | COc1cc(C(=O)N2CC3CCC2[C@@H]3N)cc2nc(-c3cc4cccnc4n3CC3CC3)n(Cc3cnn(-c4cnccn4)c3)c12 (stereo partly drawn) [Example 373, (7R)-2-{2-[1-(cyclopropylmethyl)-1H-pyrrolo[2,3-b]pyridin-2-yl]-7-methoxy-1-{[1-(pyrazin-2-yl)-1H-pyrazol-4-yl]methyl}-1H-1,3-benzodiazole-5-carbonyl}-2-azabicyclo[2.2.1]heptan-7-amine]
35 nM | COc1cc(C(=O)N2CC3CCC2[C@@H]3N)cc2nc(-c3cc4cccnc4n3CC3CC3)n(Cc3cnn(-c4cccnc4O)c3)c12 (stereo partly drawn) [Example 374, 3-[4-({5-[(7R)-7-amino-2-azabicyclo[2.2.1]heptane-2-carbonyl]-2-[1-(cyclopropylmethyl)-1H-pyrrolo[2,3-b]pyridin-2-yl]-7-methoxy-1H-1,3-benzodiazol-1-yl}methyl)-1H-pyrazol-1-yl]pyridin-2-ol]
35 nM | COc1cc(C(=O)N2C[C@H](N)C[C@@H](F)C2)cc2nc(-c3cc4cccnc4n3CC3CC3)n(Cc3cnn(-c4cccc(C(F)F)n4)c3)c12 [Example 375]
37 nM | COc1cc(C(=O)N2CC3CCC2[C@@H]3N)cc2nc(-c3cc4ccccc4n3CC3CC3)n(Cc3cnn(-c4cc(F)cnc4O)c3)c12 (stereo partly drawn) [Example 376, 3-[4-({5-[(7R)-7-amino-2-azabicyclo[2.2.1]heptane-2-carbonyl]-2-[1-(cyclopropylmethyl)-1H-indol-2-yl]-7-methoxy-1H-1,3-benzodiazol-1-yl}methyl)-1H-pyrazol-1-yl]-5-fluoropyridin-2-ol]
37 nM | COc1cc(C(=O)N2CC3CCC2[C@@H]3N)cc2nc(-c3cc4cccnc4n3CC3CC3)n(Cc3cnn(-c4ccc[n+]([O-])c4)c3)c12 (stereo partly drawn) [Example 377, 3-[4-({5-[(7R)-7-amino-2-azabicyclo[2.2.1]heptane-2-carbonyl]-2-[1-(cyclopropylmethyl)-1H-pyrrolo[2,3-b]pyridin-2-yl]-7-methoxy-1H-1,3-benzodiazol-1-yl}methyl)-1H-pyrazol-1-yl]pyridin-1-ium-1-olate]
37 nM | COc1cccc(-n2cc(Cn3c(-c4cc5ccccc5n4CC4CC4)nc4cc(C(=O)N5CC6CCC5[C@@H]6N)cc(OC)c43)cn2)n1 (stereo partly drawn) [Example 378, (7R)-2-{2-[1-(cyclopropylmethyl)-1H-indol-2-yl]-7-methoxy-1-{[1-(6-methoxypyridin-2-yl)-1H-pyrazol-4-yl]methyl}-1H-1,3-benzodiazole-5-carbonyl}-2-azabicyclo[2.2.1]heptan-7-amine]
37 nM | COc1cc(C(=O)N2CC3CCC2[C@@H]3N)cc2nc(-c3cc4ccccc4n3CC3CC3)n(Cc3cnn(-c4cncnc4)c3)c12 (stereo partly drawn) [Example 379, (7R)-2-{2-[1-(cyclopropylmethyl)-1H-indol-2-yl]-7-methoxy-1-{[1-(pyrimidin-5-yl)-1H-pyrazol-4-yl]methyl}-1H-1,3-benzodiazole-5-carbonyl}-2-azabicyclo[2.2.1]heptan-7-amine]
37 nM | COc1cc(C(=O)N2CC3CCC2[C@@H]3N)cc2nc(-c3cc4cccnc4n3CC3CC3)n(Cc3cnn(-c4cc(F)cnc4O)c3)c12 (stereo partly drawn) [Example 380, 3-[4-({5-[(7R)-7-amino-2-azabicyclo[2.2.1]heptane-2-carbonyl]-2-[1-(cyclopropylmethyl)-1H-pyrrolo[2,3-b]pyridin-2-yl]-7-methoxy-1H-1,3-benzodiazol-1-yl)methyl}-1H-pyrazol-1-yl]-5-fluoropyridin-2-ol]
37 nM | COc1cc(C(=O)N2CC3CCC2[C@@H]3N)cc2nc(-c3cc4ccccc4n3CC3CC3)n(Cc3cnn(-c4cccc(C)n4)c3)c12 (stereo partly drawn) [Example 381, (7R)-2-{2-[1-(cyclopropylmethyl)-1H-indol-2-yl]-7-methoxy-1-{[1-(6-methylpyridin-2-yl)-1H-pyrazol-4-yl]methyl}-1H-1,3-benzodiazole-5-carbonyl}-2-azabicydo[2.2.1]heptan-7-amine]
41 nM | COc1cc(C(=O)N2C[C@H](N)C[C@@H](F)C2)cc2nc(-c3cc4cccnc4n3CC3CC3)n(Cc3cnn(-c4cccnc4O)c3)c12 [Example 382, 3-[4-({5-[(3R,5R)-3-amino-5-fluoropiperidine-1-carbonyl]-2-[1-(cyclopropylmethyl)-1H-pyrrolo[2,3-b]pyridin-2-yl]-7-methoxy-1H-1,3-benzodiazol-1-yl}methyl)-1H-pyrazol-1-yl]pyridin-2-ol]
41 nM | COc1cc(C(=O)N2CC3CCC2[C@@H]3N)cc2nc(-c3cc4cccnc4n3CC3CC3)n(Cc3cnn(-c4cncc(Cl)c4)c3)c12 (stereo partly drawn) [Example 383, (7R)-2-(1-{[1-(5-chloropyridin-3-yl)-1H-pyrazol-4-yl]methyl}-2-[1-(cyclopropylmethyl)-1H-pyrrolo[2,3-b]pyridin-2-yl]-7-methoxy-1H-1,3-benzodiazole-5-carbonyl)-2-azabicyclo[2.2.1]heptan-7-amine]
41 nM | COc1cc(C(=O)N2CC3CCC2[C@@H]3N)cc2nc(-c3cc4ccccc4n3CC3CC3)n(Cc3cnn(-c4cccnc4O)c3)c12 (stereo partly drawn) [Example 384, 3-[4-({5-[(7R)-7-amino-2-azabicyclo[2.2.1]heptane-2-carbonyl]-2-[1-(cyclopropylmethyl)-1H-indol-2-yl]-7-methoxy-1H-1,3-benzodiazol-1-yl}methyl)-1H-pyrazol-1-yl]pyridin-2-ol]
42 nM | COc1cc(C(=O)N2CC3CCC2[C@@H]3N)cc2nc(-c3cc4ccccc4n3CC3CC3)n(Cc3cnn(-c4cccnc4C#N)c3)c12 (stereo partly drawn) [Example 385, 3-[4-({5-[(7R)-7-amino-2-azabicyclo[2.2.1]heptane-2-carbonyl]-2-[1-(cyclopropylmethyl)-1H-indol-2-yl]-7-methoxy-1H-1,3-benzodiazol-1-yl}methyl)-1H-pyrazol-1-yl]pyridine-2-carbonitrile]
42 nM | COc1cc(C(=O)N2C[C@H](N)C[C@@H](F)C2)cc2nc(-c3cc4cccnc4n3CC3CC3)n(Cc3cnn(-c4ccc(C#N)cn4)c3)c12 [Example 386, 6-[4-({5-[(3R,5R)-3-amino-5-fluoropiperidine-1-carbonyl]-2-[1-(cyclopropylmethyl)-1H-pyrrolo[2,3-b]pyridin-2-yl]-7-methoxy-1H-1,3-benzodiazol-1-yl}methyl)-1H-pyrazol-1-yl]pyridine-3-carbonitrile]
42 nM | COc1cc(C(=O)N2CC3CCC2[C@@H]3N)cc2nc(-c3cc4ccccc4n3CC3CC3)n(Cc3cnn(-c4ccc(C(F)F)nc4)c3)c12 (stereo partly drawn) [Example 387, (7R)-2-{2-[1-(cyclopropylmethyl)-1H-indol-2-yl]-1-({1-[6-(difluoromethyl)pyridin-3-yl]-1H-pyrazol-4-yl}methyl)-7-methoxy-1H-1,3-benzodiazole-5-carbonyl}-2-azabicyclo[2.2.1]heptan-7-amine]
43 nM | COc1cc(C(=O)N2CC3CCC2[C@@H]3N)cc2nc(-c3cc4ccccc4n3CC3CC3)n(Cc3cnn(-c4cccc(O)n4)c3)c12 (stereo partly drawn) [Example 388, 6-[4-({5-[(7R)-7-amino-2-azabicyclo[2.2.1]heptane-2-carbonyl]-2-[1-(cyclopropylmethyl)-1H-indol-2-yl]-7-methoxy-1H-1,3-benzodiazol-1-yl}methyl)-1H-pyrazol-1-yl]pyridin-2-ol]
43 nM | COc1cc(C(=O)N2C[C@H](N)C[C@@H](F)C2)cc2nc(-c3cc4cccnc4n3CC3CC3)n(Cc3cnn(-c4cccc(Cl)n4)c3)c12 [Example 389, (3R,5R)-1-(1-{[1-(6-chloropyridin-2-yl)-1H-pyrazol-4-yl]methyl}-2-[1-(cyclopropylmethyl)-1H-pyrrolo[2,3-b]pyridin-2-yl]-7-methoxy-1H-1,3-benzodiazole-5-carbonyl)-5-fluoropiperidin-3-amine]
45 nM | COc1cc(C(=O)N2CC3CCC2[C@@H]3N)cc2nc(-c3cc4cccnc4n3CC3CC3)n(Cc3cnn(CC#N)c3)c12 (stereo partly drawn) [Example 390, 2-[4-({5-[(7R)-7-amino-2-azabicyclo[2.2.1]heptane-2-carbonyl]-2-[1-(cyclopropylmethyl)-1H-pyrrolo[2,3-b]pyridin-2-yl]-7-methoxy-1H-1,3-benzodiazol-1-yl}methyl)-1H-pyrazol-1-yl]acetonitrile]
